In PubChem BioAssay (NCI):
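In this assay, cells in 96-well plates receive the compound at five concentrations for 48 hours. Endpoints are linearly interpolated between the surrounding concentrations. The concentration for full growth arrest is given as TGI.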

Assays:
Experiment in all cases: NCI tumour cell line growth inhibition, 48 h
[1] = test system: HOP-62 NSCLC
[2] = test system: SF-268 CNS
[3] = test system: NCI-H226 lung
[4] = test system: A549 NSCLC
[5] = test system: NCI-H522 lung
[6] = test system: RPMI-8226 leukemia
[7] = test system: SK-OV-3 ovarian
[8] = test system: TK-10 renal
[9] = test system: HCT-15 colon
[10] = test system: T-47D breast
[11] = test system: MDA-N
[12] = test system: U251 CNS
[13] = test system: HT29 colon
[14] = test system: UACC-257 melanoma
[15] = test system: MALME-3M melanoma
[16] = test system: MCF7 breast
[17] = test system: SNB-19 CNS
[18] = test system: NCI-H460 lung
[19] = test system: SK-MEL-5 melanoma
[20] = test system: SF-295 CNS
[21] = test system: SF-539 CNS
[22] = test system: UO-31 renal
[23] = test system: RXF 393 renal
[24] = test system: HL-60(TB) leukemia
[25] = test system: COLO 205 colon
[26] = test system: NCI-H23 lung
[27] = test system: M14 melanoma
[28] = test system: NCI/ADR-RES ovarian
[29] = test system: BT-549 breast
[30] = test system: SW-620 colon
[31] = test system: OVCAR-5 ovarian
[32] = test system: SK-MEL-2 melanoma
[33] = test system: MDA-MB-231 breast
[34] = test system: SN12C renal
[35] = test system: CCRF-CEM leukemia
[36] = test system: HOP-92 NSCLC
[37] = test system: KM12 colon
[38] = test system: PC-3 prostate
[39] = test system: HCT-116 colon
[40] = test system: SK-MEL-28 melanoma
[41] = test system: K-562 leukemia
[42] = test system: ACHN renal
[43] = test system: HS 578T breast
[44] = test system: OVCAR-3 ovarian
[45] = test system: OVCAR-4 ovarian
[46] = test system: UACC-62 melanoma
[47] = test system: LOX IMVI melanoma
[48] = test system: EKVX NSCLC
[49] = test system: MOLT-4 leukemia
[50] = test system: 786-0 renal
[51] = test system: OVCAR-8 ovarian
[52] = test system: DU-145 prostate
[53] = test system: A498 renal
[54] = test system: IGROV1 ovarian
[55] = test system: CAKI-1 renal
[56] = test system: SNB-75 CNS
[57] = test system: SR leukemia
[58] = test system: HCC-2998 colon
[59] = test system: MDA-MB-435

Measured: TGI

Cc1ccc(N=Nc2ccc(N)cc2C)c(S(N)(=O)=O)c1
99.5 µM: [36]
not listed: [58] | [59]
> 100 µM: all other assays above

Cc1c2c(Cl)c3c(c(Cl)c2c(C)c2c(Cl)c4c(c(Cl)c12)C(c1ccccc1)(c1ccccc1)C4(c1ccccc1)c1ccccc1)C(c1ccccc1)(c1ccccc1)C3(c1ccccc1)c1ccccc1
not listed: [6] | [24] | [43]
> 100 µM: all other assays above

CC(=O)N(C(C)=O)n1c(-c2ccccc2)n[nH]c1=O
not listed: [3] | [10] | [15] | [18] | [24] | [43] | [53] | [55]
> 100 µM: all other assays above

O=S(Nc1ccccc1)c1ccc(Cl)c(Cl)c1 (stereo not given)
50.1 µM: [20]
64.6 µM: [46]
84.7 µM: [43]
54.4 µM: [29]
34.2 µM: [12]
92.9 µM: [59]
79.1 µM: [1]
53 µM: [21]
82.9 µM: [2]
62.5 µM: [19]
42.4 µM: [10]
33.1 µM: [37]
not listed: [7] | [23] | [31] | [36] | [38] | [53] | [55] | [56]
> 100 µM: all other assays above
